Test results reported in publication PMC12742849 (Protein & Cell, 2025).

Molecular target: RibD-enolase complex (RibD activity) (Francisella tularensis, UniProt A0Q460)
Settings: substrate generated in situ from GTP by E. coli RibA; with and without PEP

Nc1nc(N[C@@H]2O[C@H](COP(=O)(O)O)[C@@H](O)[C@H]2O)c(N)c(=O)[nH]1 [2,5-diamino-6-ribosyl-amino-4(3H) pyrimidinedione 5′-phosphate]
fluorescence of the RibD reaction product (ex 408 nm, em 485 nm): Results showed similar activity for both, with PEP having the same effect on each
